{"source": "patent EP2167056B1", "about": "“TRANSDERMAL AND TRANSMUCOSAL DRUG DELIVERY ENHANCERS” (priority 2007, dated 2008)", "key": {"plasma glucose [1]": {"tested_on": "plasma glucose", "experiment": "Intravenous administration of octapinol hydrochloride + insulin, reduction in plasma glucose", "format": "in vivo, Sprague Dawley male rats", "conditions": "1% octapinol hydrochloride + 0.2 IE insulin/kg intravenously, after 20 minutes", "method": "A reduction in plasma glucose of about 40 % was observed after 20 minutes.\n(§1) The plasma content of glucose was determined through measurement of the amount NADH formed in accordance with the below reactions. [drawing 4] glucose-6-phosphate + NAD^+ -----> 6-phosphogluconate + NADH + H^+"}, "[2]": {"experiment": "Franz diffusion cell permeation of hydromorphone hydrochloride with delmopinol analogues (Example 2)", "conditions": "5 % hydromorphone hydrochloride in distilled water with 25 % delmopinol analogue", "method": "The permeation test was carried out using a Franz diffusion cell with a diffusion area of 1.8 cm^2 as in Example 1. […] Penetration with or without addition of different delmopinol analogues was studied in 5 parallel tests (3 cells per test)."}, "plasma glucose [3]": {"tested_on": "plasma glucose", "experiment": "Nasal absorption of insulin with octapinol hydrochloride, reduction in plasma glucose (Example 6)", "format": "in vivo, Sprague Dawley male rats", "conditions": "for D (%) total reduction in plasma glucose / Maximum reduction in plasma glucose (%): nasal, mean (S.D.), n=6", "method": "Tests on the enhancement effect of octapinol (M1523), i.e.4-(2-propylpentyl)-1- 2-propylpentyl)-1-piperidine-ethanol, a compound according to Formula (I), for nasal absorption of peptides were carried out on Sprague Dawley male rats with an individual weight of 250-300 g. The rats were fasted for 15-17 hours and anaesthetized prior to the tests. Trachea and arteria carotis were catheterized with a polyethylene tube. The peptide used for the tests was insulin.\nThe rats were divided into 5 groups and were administered through the nostril via a polyethylene tube with • 1 % octapinol hydrochloride (placebo group) • insulin (Actrapid ® Human from NovoNordisk, Denmark) 5 IE/kg body weight in physiological NaCl (control group) • insulin 2.5 IE/kg body weight with 0.02% octapinol hydrochloride (test group) • insulin 2.5 IE/kg body weight with 0.2% octapinol hydrochloride (test group) • insulin 2.5 IE/kg body weight with 1% octapinol hydrochloride (test group) The pH-value was 3.1 in the test solutions. The administration volume per rat was 25-30 µl.\nThere were 4 rats in the placebo group, 3 rats in the control group and 6 rats in each of the three test groups.\nDuring the initial tests octapinol hydrochloride was administered nasally together with insulin 5 IE/kg body weight. At an early stage, pronounced reductions in plasma glucose with 1% octapinol hydrochloride were noted.\nIn the control and test groups 150 µl blood was taken from arteria carotis 0, 10, 20, 30, 40, 50, 60, 120, 180 and 240 minutes respectively after administration.\nas §1\nThe change in glucose content was set off against time and the area below the graph (AUC) was calculated with the trapezium method.\nThe total reduction in plasma glucose (D%) and the maximal reduction in plasma glucose after nasal administration of insulin with octapinol hydrochloride is given in Table 6. The total reduction in plasma glucose (D%) was calculated according to Hirai et al (Int. J. Pharmaceut., 9,173-184: 1981). D % = (AUCc −AUCin)/(AUCc) × 100 [formula] • AUCc= area under the graph for intranasally administered insulin 5 IE/kg body weight in physiological Na Cl (control group) • AUCin= area under the graph for intranasally administered insulin in octapinol solution Table 6"}, "[4]": {"method": "The permeation test was carried out using a Franz diffusion cell with a diffusion area of 1.8 cm^2 as in Example 1. […] 180 µl of 1 % nicotinic acid in distilled water with and without the addition of 25% delmopinol hydrochloride was used on the \"donor\" side of the skin. The nicotinic acid was ^14C-labeled. Penetration with and without addition of delmopinol hydrochloride was studied in 2 parallel tests (3 cells per test).\nRadioactivity in the receiving\" phase was read at different time intervals over a one week period. […]", "remark": "listed apart in the source"}, "[5]": {"experiment": "Franz diffusion cell permeation of 3H-labeled TRH (Example 5)", "format": "in vitro ADME, human", "procedure": "A human full-skin sample was positioned in the cell with a 0.05 M phosphate buffer solution (pH 6.0) as receiving phase on the \"receptor\" side of the skin. 180 µl of 5 % thyroid-releasing hormone (TRH) in dist. water with and without the addition of 25% delmopinol hydrochloride was used on the \"donor\" side of the skin. The TRH was ^3H-labeled. Penetration with and without addition of delmopinol hydrochloride was studied in 2 parallel tests (4 cells per test).\nRadioactivity in the receiving phase was read at different time intervals over a one week period."}, "[6]": {"format": "in vitro ADME, human", "method": "180 µl of 1 % mannitol in distilled water with and without the addition of 1, 5, 10 and 25 % delmopinol hydrochloride respectively was used on the \"donor\" side of the skin. The mannitol was ^3H-labeled.\nA very pronounced effect of the penetration enhancer was seen, but only little if any difference between the concentrations 5, 10 and 25 %, as shown in Table 4."}, "[7]": {"conditions": "insulin 2.5 IE/kg with 0.02 % octapinol hydrochloride"}, "[8]": {"conditions": "insulin 2.5 IE/kg with 0.2 % octapinol hydrochloride"}, "[9]": {"conditions": "insulin 2.5 IE/kg with 1 % octapinol hydrochloride"}}, "note": "Where two headings read alike, the source gives them in different places."}
{"compound": "CCCC(CCC)CC1CCN(CCO)CC1", "note": "[M 1523 (octapinol)]", "values": [{"measurement": "reduction in plasma glucose", "setting": "plasma glucose [1]", "value": "about 40%"}, {"measurement": "Flux (of hydromorphone hydrochloride)", "setting": "[2]", "value": 13, "unit": "µg/h/cm^2"}, {"measurement": "change in plasma glucose level", "setting": "plasma glucose [3]; 1% octapinol hydrochloride alone, nasally, four rats", "value": "No significant change"}, {"measurement": "reductions in plasma glucose, of the initial plasma glucose value", "setting": "plasma glucose [3]; initial tests: nasal, insulin 5 IE/kg with 1% octapinol hydrochloride", "value": "85 - 90%"}, {"measurement": "D (%) total reduction in plasma glucose", "setting": "plasma glucose [3]; [7]", "value": "3.6 (3.2) %"}, {"measurement": "Maximum reduction in plasma glucose (%)", "setting": "plasma glucose [3]; [7]", "value": "3.5 (2.9) %"}, {"measurement": "D (%) total reduction in plasma glucose", "setting": "plasma glucose [3]; [8]", "value": "9.5 (5.3) %"}, {"measurement": "Maximum reduction in plasma glucose (%)", "setting": "plasma glucose [3]; [8]", "value": "6.5 (3.5) %"}, {"measurement": "D (%) total reduction in plasma glucose", "setting": "plasma glucose [3]; [9]", "value": "23.8 (5.8) %"}, {"measurement": "Maximum reduction in plasma glucose (%)", "setting": "plasma glucose [3]; [9]", "value": "39.1 (11.3) %"}]}
{"compound": "CCCCCCCCCCC1CN(CCCO)CCO1", "note": "(stereo not shown) [M 1676]", "values": [{"measurement": "Flux (of hydromorphone hydrochloride)", "setting": "[2]", "value": 19, "unit": "µg/h/cm^2"}]}
{"compound": "CCCC(CCC)CCCC1COCC[N+]1(C)CCO.[Cl-]", "note": "(stereo not shown) [M 1713, 4-(2-hydroxyethyl)-4-methyl-3-(4-propylheptyl)-morpholinium chloride]", "values": [{"measurement": "Flux (of hydromorphone hydrochloride)", "setting": "[2]", "value": 4.8, "unit": "µg/h/cm^2"}]}
{"compound": "CCCC(CCC)CCCC1COCCN1CCO", "note": "(stereo not shown) [delmopinol]", "values": [{"measurement": "steady state flux of morphine sulphate", "setting": "10 % morphine sulphate in distilled water with 25% delmopinol hydrochloride", "value": "about 26 µg/h/cm^2"}, {"measurement": "factor by which permeation of hydromorphone hydrochloride is increased", "setting": "in the presence of 25 % delmopinol versus without", "value": "about 290"}, {"measurement": "Flux (steady state flux of nicotinic acid)", "setting": "[4]; pH 7.4", "value": 1.5, "unit": "µg/h/cm^2"}, {"measurement": "Flux (steady state flux of TRH)", "setting": "[5]; pH 6", "value": 34, "unit": "ng/h/cm^2"}]}
{"compound": "OC[C@@H](O)[C@@H](O)[C@H](O)[C@H](O)CO", "note": "[mannitol, reference compound]", "values": [{"measurement": "Flux (of mannitol)", "setting": "[6]", "value": 6.6, "unit": "µg/h/cm^2"}]}
{"compound": "O=C(O)c1cccnc1", "note": "[nicotinic acid, reference compound]", "values": [{"measurement": "Flux (steady state flux of nicotinic acid)", "setting": "[4]", "value": 0.15, "unit": "µg/h/cm^2"}]}
{"compound": "thyroid-releasing hormone (TRH) [reference compound]", "values": [{"measurement": "Flux (steady state flux of TRH)", "setting": "[5]; 5 % TRH in dist. water without enhancer", "value": 4, "unit": "ng/h/cm^2"}]}
